These results are taken from patent US20100227845A1, “SUBSTITUTED 1,2,4-OXADIAZOLES AND ANALOGS THEREOF AS CB2 RECEPTOR MODULATORS, USEFUL IN THE TREATMENT OF PAIN, RESPIRATORY AND NON-RESPIRATORY DISEASES” (priority 2007, published 2010).

Test [1] concerns the target human CB2 (Homo sapiens, UniProt P34972). As to the kind of experiment: Cyclic AMP assay (HTRF), CHO cells expressing human CB2. It is filed as cell-based. On the procedure:
(§1) Chinese Hamster Ovary cells (CHO) expressing human CB1 or human CB2 (3.3×10^5 cells/ml) were preincubated for 15 min at room temperature with tested agonist and 3-isobutyl-1-methylxanthine (IBMX; 200 μM) in phosphate buffered saline containing 1 mg/ml BSA (assay buffer) followed by 30 min incubation with forskolin in a total volume of 10 μl. The optimal forskolin concentration for each cell line was established in a separate experiment and adjusted to stimulate 70% of maximal cAMP response. cAMP content was measured using an HTRF assay (CisBio) according to the manufacturer's two step protocol.

Test [2] deals with human CB1 (Homo sapiens, UniProt P21554). As to the kind of experiment: Cyclic AMP assay (HTRF), CHO cells expressing human CB1. It is filed as cell-based. On the procedure:
as §1

The mark [3] stands for this setting: IP of tested agonist, CHO cells expressing human CB2, forskolin-stimulated cAMP, HTRF, read-out: CB2 (HTRF).
The mark [4] stands for this setting: IP of tested agonist, CHO cells expressing human CB1, forskolin-stimulated cAMP, HTRF, read-out: CB1 (HTRF).

Read-outs that look alike come from different tables or passages of the source.

Chain of human CB1 (P21554 whole entry): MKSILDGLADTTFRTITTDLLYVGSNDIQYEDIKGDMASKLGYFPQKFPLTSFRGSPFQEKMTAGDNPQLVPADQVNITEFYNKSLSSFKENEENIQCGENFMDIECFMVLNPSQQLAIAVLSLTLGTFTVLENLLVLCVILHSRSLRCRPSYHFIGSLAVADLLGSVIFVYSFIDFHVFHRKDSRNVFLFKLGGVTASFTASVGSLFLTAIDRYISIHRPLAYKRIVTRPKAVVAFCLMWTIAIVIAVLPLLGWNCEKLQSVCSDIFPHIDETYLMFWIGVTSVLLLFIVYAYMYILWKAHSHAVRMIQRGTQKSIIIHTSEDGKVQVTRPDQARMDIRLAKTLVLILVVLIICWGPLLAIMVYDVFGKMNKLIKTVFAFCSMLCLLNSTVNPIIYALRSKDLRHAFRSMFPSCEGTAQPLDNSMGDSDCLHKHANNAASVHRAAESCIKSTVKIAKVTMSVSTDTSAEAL
Chain of human CB2 (P34972 whole entry): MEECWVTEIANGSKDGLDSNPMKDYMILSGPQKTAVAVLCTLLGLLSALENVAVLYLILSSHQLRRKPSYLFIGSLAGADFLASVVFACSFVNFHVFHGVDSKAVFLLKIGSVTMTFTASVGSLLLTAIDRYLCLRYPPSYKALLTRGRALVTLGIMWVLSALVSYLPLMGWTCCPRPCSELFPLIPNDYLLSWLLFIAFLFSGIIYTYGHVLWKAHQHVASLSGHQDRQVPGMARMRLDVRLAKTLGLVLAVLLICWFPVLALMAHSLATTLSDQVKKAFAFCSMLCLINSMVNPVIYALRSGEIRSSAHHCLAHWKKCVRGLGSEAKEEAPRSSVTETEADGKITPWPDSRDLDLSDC

Take `CCCCOc1ncccc1-c1nc(-c2ccc(Cl)cc2)no1` [Example I-3]: the EC50 is 85 nM in test [1] and over 17000 nM in test [2].
In the same order, the values of `CCCCOc1ncccc1-c1nc(-c2cccc(Cl)c2Cl)no1` [Example I-4] are 3 nM and 309 nM.
With `CCCCOc1ncccc1-c1nc(-c2c(Cl)cccc2Cl)no1` [Example I-5], the figures for the EC50 in test [1] and in test [2] were 4 nM and 114 nM, respectively.
Turning to `CS(=O)(=O)C1CCN(c2ncccc2-c2cc(-c3cccc(F)c3)n[nH]2)CC1` [Example V-4], the values for the EC50 in test [1] (setting [3]) and in test [2] (setting [4]) were 68 nM and 8750 nM, respectively.
In the same order, the values of `NC(=O)C1CCN(c2ncccc2-c2cc(-c3cccc(F)c3)n[nH]2)CC1` [Example V-5] are 717 nM and over 17000 nM.
On the same counts, the results for `COCCOc1ncccc1-c1nc(-c2cccc(Cl)c2)no1` [II-2] are 272 nM and over 17000 nM.
On the same counts, the results for `CC(C)(C)COc1ncccc1-c1nc(-c2cccc(Cl)c2)no1` [II-5] are 508 nM and over 17000 nM.
As for `CCCCOc1ncccc1-c1nc(-c2ccccc2)c[nH]1` [III-2], the results for the EC50 in test [1] (setting [3]) and in test [2] (setting [4]) were 900 nM and over 17000 nM, respectively.
On the same counts, the results for `CCCCOc1ncccc1-c1nc(-c2ccc(C(F)(F)F)cc2)c[nH]1` [III-3] are 109 nM and over 17000 nM.
On the same counts, the results for `CCCCOc1ncccc1-c1nc2ccccc2[nH]1` [IV-2] are 110 nM and over 17000 nM.
As for `N#Cc1ccc(-c2ncccc2-c2nc3cc(Cl)c(Cl)cc3[nH]2)cc1` [IV-5], the EC50 is 258 nM in test [1] (setting [3]) and over 17000 nM in test [2] (setting [4]).
